The results in this text go back to ChEMBL document CHEMBL2440095, “Synthesis and activity of novel tetrazole compounds and their pyrazole-4-carbonitrile precursors against Leishmania spp” (Bioorg Med Chem Lett, 2013).

Structures are written as SMILES. pIC50: −log10 of the molar value.

The test system of one data set is Leishmania braziliensis. Briefly: Antipromastigote activity against Leishmania braziliensis MCAN/BR/98/R619 after 24 hrs by MTT assay. The format is functional, organism-based. The following applies: MCAN/BR/98/R619, 24 h. On the technique in general: Tetrazolium dyes change colour on reduction, which living cells bring about.
The subject of a further data set is Leishmania amazonensis. Put plainly: Antipromastigote activity against Leishmania amazonensis MHOM/BR/77/LTB0016 after 24 hrs by MTT assay. The format is functional, organism-based. The following applies: MHOM/BR/77/LTB0016, 24 h.
The nature of data set [1]: Cytotoxicity against mouse RAW264.7 cells after 24 hrs by MTT assay. The format is cell-based.

With `N=C(N)c1ccc(OCCCCCOc2ccc(C(=N)N)cc2)cc1` [PENTAMIDINE], the negative logarithm of the IC50 (pIC50) – broadly, −log10 of the IC50, conventionally taken in molar units – in the data set on Leishmania braziliensis was 4.89; in the data set with Leishmania amazonensis, 5.47. The midpoint of cytotoxicity in data set [1], the CC50 at 24 h, lay at 25.5 µM.
